Results published in patent US11091522B2, “Peptidomimetic macrocycles and uses thereof” (priority 2018, dated 2021).
Where two headings read alike, the source gives them in different places.

Experiments:
[1] = tested on: phospho-Rb, phospho-FOXM1, p53, p21
[2] = tested on: human osteosarcoma, breast cancer, and melanoma models; experiment: Murine xenograft models of human tumors, AP1 single agent; format: in vivo
[3] = Pharmacokinetics of AP1 and palbociclib in non-tumor-bearing nu/nu mice
[4] = nu/nu, mouse, in vivo, 20 mg/kg

## CC(=O)N[C@@H](CC(C)C)C(=O)N[C@H](C(=O)N[C@@H](Cc1ccccc1)C(=O)N[C@]1(C)CCCCCC/C=C\CCC[C@@](C)(C(=O)N[C@@H](C)C(=O)N[C@@H](C)C(=O)N[C@@H](C)C(=O)N[C@@H](C)C(=O)N[C@@H](C)C(=O)N[C@H](C)C(N)=O)NC(=O)[C@H](CC(C)C)NC(=O)[C@H](CCC(N)=O)NC(=O)[C@H](C)NC(=O)[C@H](Cc2c[nH]c3ccccc23)NC(=O)[C@H](Cc2ccc(O)cc2)NC(=O)[C@H](CCC(=O)O)NC1=O)[C@@H](C)O [AP1]
[1]; SJSA1, after washout
  p53 and p21: sustained p53 and p21 up-regulation
[1]; SJSA1, single agent and in combination
  p53 and p21: up-regulated p53 and p21
[2]; IV dosages, each xenograft model
  tumor growth inhibition (TGI): Statistically significant tumor growth inhibition
[2]; xenograft tumors
  apoptosis, cleaved PARP, in vivo PD assays: increase in cleaved poly-ADP-ribose polymerase (PARP)
  p21, in vivo PD assays: increased p21
  p53 protein, in vivo PD assays: increased p53 protein
  tumor cell proliferation, in vivo PD assays: decreased tumor cell proliferation
[3]; non-tumor-bearing nu/nu mice
  effect of co-administration on PK: not affected by palbociclib
[3]; [4]
  AUC(0-t): 686 µg·h/mL
  Cmax: 138 µg/mL
